Data taken from US20230203126A1, “A COMPOSITION COMPRISING S-ARRESTIN PEPTIDES” (WORG PHARMACEUTICALS (HANGZHOU) CO., LTD., priority 2019, published 2023).
Several values for one entry are separate records, joined by “and”; a condition that tells them apart may be missing. Identical values can stand only once. No end group written: not given here.

System: S-Ag-induced cell activation (IFNy production of LN cells and splenocytes)
Experiment: Ex vivo tolerization experiment (DR3tg mice)
Format: in vivo
Conditions: for reduction of S-Ag-induced cell activation (IFNy) in spleens: dose escalation to 15 nmol per peptide s.c., cocktail vs single peptide, vs control group, two independent experiments (FIG. 7); for reduction of S-Ag-induced cell activation (IFNy) in lymph nodes / reduction of S-Ag-induced cell activation (IFNy) in spleen: single peptide escalating dose s.c., vs PBS; for reduction of S-Ag-induced cell activation (IFNy) in lymph nodes: 10 days after immunization (FIG. 5A, 6A); for reduction of S-Ag-induced cell activation (IFNy) in spleen: 10 days after immunization (FIG. 5B, 6B)
Description: (§1) FIG. 5: 17JK alone induces tolerance towards S-Ag protein in DR3tg mice. Mice were injected subcutaneously in the flank with 0,1 µg/ml, 1 µg/ml and 10 µg/ml 17JK on days -15, -13 and -11, followed by 3 injections of 100 µg/ml on days -8, -6 and -4 (escalating dose regime). On day 0, mice were immunized subcutaneously at the base of the tail with antigen/CFA. Mice were sacrificed 10 days after immunization to measure activation of LN cells and splenocytes upon S-Ag restimulation. IFNy concentration was measured in the culture supernatant as an indication of cell activation. Data represent mean ± SEM of the concentration of IFNy for the PBS-treated mice (black lines) and 17JK-treated mice (grey lines). Two-way ANOVA was used to measure overall treatment effects on T cell activation. Dunnett’s multiple comparisons test was used and significant differences are indicated in the graphs (** p<0.01; *** p<0.001). The % inhibition of IFNy production as compared to the control group is indicated in the graphs. (A) Tolerization against S-Ag in LN. IFNy production expressed as IFNy concentration (pg/ml). (B) Tolerization against S-Ag in spleen. IFNy production expressed as IFN-y concentration (pg/ml). LN, lymph nodes. Data representative of 3 independent experiments.
as §1, with “FIG. 6: 15N3K alone induces” for “FIG. 5: 17JK alone induces”, “10 µg/ml 15N3K on days” for “10 µg/ml 17JK on days”, “lines) and 15N3K-treated mice (grey” for “lines) and 17JK-treated mice (grey”, “the graphs (* p<0.05; **** p<0.0001). The %” for “the graphs (** p<0.01; *** p<0.001). The %”, “Tolerization against SAg in spleen.” for “Tolerization against S-Ag in spleen.”
FIG. 7: Treatment with peptide cocktail ATX975 reduces S-Ag-induced immune cell activation in DR3tg mice more efficiently than treatment with 17JK or 15N3K alone. Mice were injected subcutaneously in the flank with 0.015 nmol, 0.15 nmol and 1.5 nmol of peptide on days -15, -13 and -11 respectively, followed by 3 injections of 15 nmol peptide on days -8, -6 and -4 (dose escalation schedule). For treatment with the cocktail (ATX975) containing 3 peptides, these doses were given per peptide (reaching a total top dose of 45 nmol peptide). On day 0, mice were immunized subcutaneously at the base of the tail with antigen/CFA. Mice were sacrificed 10 days after immunization to measure activation of splenocytes upon SAg restimulation. Data represent mean ± SEM of the IFNy concentration for the control-treated mice (black lines) and peptide-treated mice (grey lines). Two-way ANOVA was used to measure overall treatment effects on T cell activation. Dunnett’s multiple comparisons test was used and significant differences are indicated in the graphs (* p<0.05; ** p<0.01; *** p<0.001; **** p<0.0001 as compared to the control group; ^# p<0.05, ^#### p<0.0001 as compared to the ATX975 group). The % inhibition of IFNy production as compared to the control group is indicated in the graphs. (A) Tolerization against S-Ag […]. IFN-y production expressed as IFN-y concentration (pg/ml). (B) Tolerization against S-Ag in spleen. […]

| Substance | reduction of S-Ag-induced cell activation (IFNy) in spleens | reduction of S-Ag-induced cell activation (IFNy) in lymph nodes [%] | reduction of S-Ag-induced cell activation (IFNy) in spleen [%] |
| --- | --- | --- | --- |
| KKKVIFKKISRDKSVTIYLGKKK-NH2 [15N3K] | 74% | 61 | 72 |
| KKKLTFRRDLYFSRVQVYKKK-NH2 [17JK] | 80% and 52% | 78 | 84 |
